Source: patent publication US20230048888A1, “USE OF TRIAZOLOTRIAZINE DERIVATIVE IN TREATMENT OF DISEASES” (ZHEJIANG VIMGREEN PHARMACEUTICALS, LTD., priority 2019, published 2023)
In brackets after ≈: the same amount, converted by molar mass. Values belong to the compound of their own block, whether it stands above or below them.

What was measured:
[1] = Solubility in biological vehicles (SGF, FaSSIF, FeSSIF) at 37° C., HPLC; assay type: physicochemical; settings: for Solubility / solubility at 2 h: 2 h; for solubility at 0.5 h / solubility at 2 h: 37 °C, thermodynamic from solid
Procedure: An Agilent HPLC 1260 series instrument was used in an HPLC analysis method. The HPLC method for testing solubility and stability was as follows:
In the experiment, the solubilities of the free-base crystal form and the acetate crystal form were determined at 37° C. in biological vehicles (simulated gastric fluid (SGF), fasted state stimulated intestinal fluid (FaSSIF) and fed state stimulated intestinal fluid (FeSSIF)). 3 mg of a sample was added to a sample bottle, and 1 mL of biologically relevant vehicle was added to the same. The suspension was shaken at a speed of 500 rpm at 37° C.

[2] = test system: haloperidol-induced stiffness; experiment: Haloperidol-induced rat Parkinson's disease stiffness model (stiffness latency on metal rod); assay type: in vivo
Procedure: The animals required for the day were transferred from the rearing room to an operation room in advance, and were let to acclimate for at least 30 min before the test was initiated. […] After 30 minutes, the test animals were intraperitoneally injected with haloperidol or vehicle 2 without haloperidol, and put back to the original rearing cages. At 60 and 120 minutes after the injection of haloperidol or vehicle 2, the forelimbs of the rat were gently placed vertically on a horizontal metal rod with a length of 20.5 cm, a diameter of 1.2 cm, and a height of 8.5 cm above the workbench, then its hind limbs were gently placed on a test box, and timing started. When the rat moved or climbed down on the metal rod with forelimbs, the timing was stopped, and the duration for the two forelimbs of the rat to maintain the posture on the metal rod was recorded, i.e., being recorded as stiffness latency. If the rat's front paws were not put down, the observation was terminated after 600 sec, and the stiffness latency of this animal was recorded as 600 sec. When the rod climbing test was completed that day, 5 animals from each group were perfused and fixed, and whole brains were removed for preservation. Stiffness latency: the time for the two forelimbs of a rat to keep still on the metal rod. The longest stiffness latency was 600 sec. Stiffness rate %=(stiffness latency/600)*100% All measurement data were represented as mean±standard error of mean (mean±SEM), and check analysis was performed by Prism 8.0 statistical software.

[3] = test system: reserpine-induced dyskinesia; experiment: Rat reserpine-induced dyskinesia model; assay type: in vivo
[4] = Pharmacokinetics of Compounds 27, 16, 14 and 22 in SD rats; assay type: in vivo; settings: for AUC(0-t) / Cmax / half-life / clearance: Sprague-Dawley, rat, in vivo; for clearance: read-out: Cl—pred (converted)
From the text: WinNonlin® 6.4 was used as the calculation software for PK parameters.

human ADORA1 = target: T1, human ADORA1 (Homo sapiens, UniProt P30542); experiment: Calcium flow test (FLIPR), ADORA1 stably transfected HEK293; assay type: cell-based; settings: Table 9
T1 construct: host or cells: HEK293
T1 sequence (P30542 whole entry): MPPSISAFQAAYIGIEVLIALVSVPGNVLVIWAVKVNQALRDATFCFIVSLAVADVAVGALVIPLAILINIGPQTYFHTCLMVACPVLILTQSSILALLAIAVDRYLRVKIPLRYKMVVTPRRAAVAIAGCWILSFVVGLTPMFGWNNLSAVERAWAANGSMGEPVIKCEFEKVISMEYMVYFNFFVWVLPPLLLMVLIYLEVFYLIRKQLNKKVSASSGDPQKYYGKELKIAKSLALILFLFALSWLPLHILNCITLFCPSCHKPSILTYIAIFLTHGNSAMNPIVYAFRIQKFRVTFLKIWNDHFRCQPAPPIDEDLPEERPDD
From the text: The binding of the A2AR agonist to A2AR could activate a downstream pathway to increase the intracellular calcium ion concentration. The antagonist would competitively occupy the binding site where the agonist binds to A2AR, thereby interrupting the intracellular signal transduction and leading to a change in the intracellular calcium ion concentration. By detecting the strength of the intracellular calcium ion signal, the antagonistic activities of the compound on human ADORA1, ADORA2A, ADORA2B and ADORA3 adenosine receptors were determined. […]
7) The FLIPR instrument software was operated; following a set program, 10 μL of experimental buffer salt solution was added to the cell plate; and fluorescence signals were read. Then, 10 μL of the reference compound of agonist at a predetermined concentration was added to the cell plate, and the fluorescence signals were read. After reading, data was exported by means of “Max-Min” and “Read 91 to Maximum allowed” in the software, the EC80 of each cell line was calculated, and an agonist with a concentration of 6×EC80 was prepared.
9) The FLIPR instrument software was operated; following a set program, 10 μL of the test compound and 10 μL of the reference compound were added at a predetermined concentration to the cell plate; and the fluorescence signals were read. […]

[5] = fasted state simulated intestinal fluid (FaSSIF), fassif
[6] = fed state simulated intestinal fluid (FeSSIF), fessif
[7] = simulated gastric fluid (SGF), simulated gastric fluid, SGF
[8] = 10 mg/kg intragastric, 60 min after haloperidol
[9] = 10 mg/kg intragastric, 120 min after haloperidol
[10] = 7.5 mg/kg intragastric, 0-30 min
[11] = 7.5 mg/kg intragastric, 0-60 min
[12] = 7.5 mg/kg intragastric, 30-60 min
[13] = 15 mg/kg intragastric, 0-30 min
[14] = 15 mg/kg intragastric, 0-60 min
[15] = 15 mg/kg intragastric, 30-60 min
[16] = 30 mg/kg intragastric, 0-30 min
[17] = 30 mg/kg intragastric, 0-60 min
[18] = 30 mg/kg intragastric, 30-60 min

Compound: CC(=O)O.Nc1nc(NCCc2ccc(NC3COC3)cc2)nc2nc(-c3ccco3)nn12 [Acetate of Compound 22, 2-(furan-2-yl)-N5-(4-(oxetane-3-ylamino)phenethyl)-[1,2,4]triazolo[1,5-a][1,3,5]triazine-5,7-diamine acetate]
Solubility ([1]; SGF, acetate): >2887 µg/mL | solubility at 0.5 h [1, 5]: 9.3 µg/mL | solubility at 2 h [1, 5]: 9.9 µg/mL | solubility at 0.5 h [1, 6]: 33.1 µg/mL | solubility at 2 h [1, 6]: 33.8 µg/mL | solubility at 0.5 h [1, 7]: > 2890 µg/mL | solubility at 2 h [1, 7]: > 2890 µg/mL | Stiffness rate ([2]; 3 mg/kg intragastric, 60 min): 1.6 ± 0.8% | Stiffness latency ([2]; 3 mg/kg intragastric, 60 min after haloperidol): 9.3 ± 4.5 s | Stiffness rate ([2]; 3 mg/kg intragastric, 120 min): 4.1 ± 1.9% | Stiffness latency ([2]; 3 mg/kg intragastric, 120 min after haloperidol): 24.8 ± 11.2 s | Stiffness rate ([2]; 10 mg/kg intragastric, 60 min): 0.1 ± 0.06% | Stiffness latency [2, 8]: 0.7 ± 0.4 s | Stiffness rate ([2]; 10 mg/kg intragastric, 120 min): 0.4 ± 0.2% | Stiffness latency [2, 9]: 2.6 ± 1.5 s | Stiffness rate ([2]; 30 mg/kg intragastric, 60 min): 0.1 ± 0.05% | Stiffness latency ([2]; 30 mg/kg intragastric, 60 min after haloperidol): 0.6 ± 0.3 s | Stiffness rate ([2]; 30 mg/kg intragastric, 120 min): 0.1 ± 0.07% | Stiffness latency ([2]; 30 mg/kg intragastric, 120 min after haloperidol): 0.6 ± 0.4 s | Number of standings [3, 10]: 28.5 ± 7.1 | Walking distance [3, 10]: 0.9 ± 0.3 m | Walking time [3, 10]: 9.3 ± 4.3 s | Number of standings [3, 11]: 56.7 ± 12.6 | Walking distance [3, 11]: 2.0 ± 0.6 m | Walking time [3, 11]: 17.8 ± 7.5 s | Number of standings [3, 12]: 28.3 ± 6.9 | Walking distance [3, 12]: 1.0 ± 0.3 m | Walking time [3, 12]: 16.2 ± 7.6 s | Number of standings [3, 13]: 51.9 ± 7.4 | Walking distance [3, 13]: 1.8 ± 0.4 m | Walking time [3, 13]: 26.3 ± 5.6 s | Number of standings [3, 14]: 110 ± 12.7 | Walking distance [3, 14]: 3.8 ± 0.6 m | Walking time [3, 14]: 48.5 ± 8.2 s | Number of standings [3, 15]: 58.2 ± 7.7 | Walking distance [3, 15]: 2.0 ± 0.4 m | Walking time [3, 15]: 40.3 ± 15.6 s | Number of standings [3, 16]: 56.5 ± 9.6 | Walking distance [3, 16]: 2.5 ± 1.0 m | Walking time [3, 16]: 35.8 ± 12.6 s | Number of standings [3, 17]: 97.9 ± 15.3 | Walking distance [3, 17]: 3.9 ± 1.4 m | Walking time [3, 17]: 52.9 ± 17.5 s | Number of standings [3, 18]: 41.5 ± 6.7 | Walking distance [3, 18]: 1.4 ± 0.4 m | Walking time [3, 18]: 33.2 ± 12.2 s

Compound: Nc1nc(NCCc2ccc(NC3COC3)cc2)nc2nc(-c3ccco3)nn12 [Compound 22, 2-(furan-2-yl)-N5-(4-(oxetan-3-ylamino)phenethyl)-[1,2,4]triazolo[1,5-a][1,3,5]triazine-5,7-diamine]
Solubility ([1]; SGF, listed as Free base): 712.1 µg/mL (≈ 1810 µM) | solubility at 0.5 h [1, 5]: 3.7 µg/mL (≈ 9.43 µM) | solubility at 2 h [1, 5]: 4.2 µg/mL (≈ 10.7 µM) | solubility at 0.5 h [1, 6]: 7 µg/mL (≈ 17.8 µM) | solubility at 2 h [1, 6]: 8.8 µg/mL (≈ 22.4 µM) | solubility at 0.5 h [1, 7]: 622 µg/mL (≈ 1590 µM) | solubility at 2 h [1, 7]: 712 µg/mL (≈ 1810 µM) | Cl—F—pred ([4]; PO, dose 3 (mg/kg)): 25.3 mL/min/kg | F ([4]; PO, dose 3 (mg/kg)): 39.49% | AUC(0-t) ([4]; IV, dose 1 (mg/kg)): 1770 ng·h/mL | Cmax ([4]; IV, dose 1 (mg/kg)): 2350 ng/mL | half-life ([4]; IV, dose 1 (mg/kg)): 1 h | clearance ([4]; IV, dose 1 (mg/kg)): 9.5 mL/min/kg | AUC(0-t) ([4]; PO, dose 3 (mg/kg)): 2100 ng·h/mL | Cmax ([4]; PO, dose 3 (mg/kg)): 580 ng/mL | half-life ([4]; PO, dose 3 (mg/kg)): 3.3 h | IC50 (human ADORA1): 218 ± 148 nM

Cl—F—pred ([4]; PO, dose 5 (mg/kg)): 147 mL/min/kg | F ([4]; PO, dose 5 (mg/kg)): 33.85% | AUC(0-t) ([4]; IV, dose 1 (mg/kg)): 477 ng·h/mL | Cmax ([4]; IV, dose 1 (mg/kg)): 1340 ng/mL | half-life ([4]; IV, dose 1 (mg/kg)): 0.51 h | clearance ([4]; IV, dose 1 (mg/kg)): 36 mL/min/kg | AUC(0-t) ([4]; PO, dose 5 (mg/kg)): 484 ng·h/mL | Cmax ([4]; PO, dose 5 (mg/kg)): 318 ng/mL | half-life ([4]; PO, dose 5 (mg/kg)): 4.36 h
Compound: COCCNc1ccc(CCNc2nc(N)n3nc(-c4ccco4)nc3n2)cc1 [Compound 27, 2-(furan-2-yl)-N5-(4-((2-methoxyethyl)amino)phenethyl)-[1,2,4]triazolo[1,5-a][1,3,5]triazine-5,7-diamine]

IC50 (human ADORA1): 228 ± 105 nM
Compound: Cn1nnc(-c2ccc(CCNc3nc(N)n4nc(-c5ccco5)nc4n3)cc2)n1 [Compound 40, N5-(4-(2-methyl-2H-tetrazol-5-yl)phenethyl)-2-(furan-2-yl)-[1,2,4]triazolo[1,5-a][1,3,5]triazine-5,7-diamine]

Compound: CCn1c(=O)c2c(nc(/C=C/c3ccc(OC)c(OC)c3)n2C)n(CC)c1=O [Istradefylline, reference compound]
Stiffness rate ([2]; 10 mg/kg intragastric, 60 min): 0.2 ± 0.1% | Stiffness latency [2, 8]: 1.4 ± 0.8 s | Stiffness rate ([2]; 10 mg/kg intragastric, 120 min): 0.07 ± 0.05% | Stiffness latency [2, 9]: 0.4 ± 0.3 s | Number of standings [3, 13]: 44.1 ± 7.9 | Walking distance [3, 13]: 1.6 ± 0.6 m | Walking time [3, 13]: 19.6 ± 5.9 s | Number of standings [3, 14]: 95.7 ± 16.3 | Walking distance [3, 14]: 2.9 ± 0.9 m | Walking time [3, 14]: 35.1 ± 10.1 s | Number of standings [3, 15]: 51.6 ± 9.7 | Walking distance [3, 15]: 1.3 ± 0.4 m | Walking time [3, 15]: 32.0 ± 13.7 s
